Assay results as given in patent publication US12371428B2 (Exelixis, Inc., priority 2019, dated 2025).
Where two headings read alike, the source gives them in different places.

Key:
Type in all cases: cell-based
[1] = target: KDR (phospho-KDR, VEGF165-stimulated HUVEC cells) (Homo sapiens (Human), UniProt P35968); assay: KDR autophosphorylation ELISA in HUVEC cells (Example G); conditions: cellular activity
Protocol: Human umbilical vein endothelial cells or HUVEC (Lonza #C2519A) were seeded at 2×10^4 cells/well onto 96-well plates (Corning #3904), in EGM-2 growth medium (Lonza #CC-3162) containing 1% Penicillin Streptomycin (Thermo Fisher #15140-122). HUVEC cells were incubated at 37° C., 5% CO2 for 24 h and then starved for 24 h in serum-free EBM-2 basal medium (Lonza #CC-3156) containing 1% Penicillin Streptomycin. Test compounds were serially diluted to produce an 8-point dose curve in fresh serum-free medium to a final concentration of 0.3% DMSO (vehicle) and added to the cells and incubated for 1 h. Cells were then stimulated with 100 ng/mL recombinant human VEGF165 (R&D Systems #293-VE-500) for 5 min, washed with cold PBS, and immediately lysed with […] of cold 1× lysis buffer [20 mM Tris, 137 mM sodium chloride, 2 mM EDTA, 10% glycerol, 1% NP-40 alternative, 1 mM activated sodium orthovanadate, 1 mM PefaBloc SC (Sigma-Aldrich #11429868001), protease/phosphatase inhibitor tablet (Thermo Fisher #A32959)]. Lysates were collected and 100 μL/well added into the human phospho-KDR DuoSet IC ELISA (R&D Systems #DYC1766-2). Assay was performed according to manufacturer's instructions and sample phospho-KDR concentrations were extrapolated using human phospho-KDR control (R&D Systems #841421) as a standard. Positive control wells (100% activity) contained VEGF165-stimulated, DMSO-treated cell lysates. Negative control wells (0% activity) contained non-stimulated cell lysates. IC50 values were calculated by nonlinear regression analysis using a 4-parameter logistic curve fit in ActivityBase XE (IDBS).

[2] = target: Mer (phospho-Mer, MERTK-transfected 293A cells) (Homo sapiens (Human), UniProt Q12866); assay: Mer autophosphorylation ELISA in transient transfected 293A cells (Example H); conditions: cellular activity
Protocol: 293A cells (Thermo Fisher #R70507) were seeded at 1.5×10^6 cells/well onto 100 mm dish (Greiner #664169), in DMEM (Thermo Fisher #11995-040) containing 10% FBS (Thermo Fisher #26140-079), 1% MEM NEAA (Thermo Fisher #11140-050), 1% GlutaMax (Thermo Fisher #35050-061), and 1% Penicillin Streptomycin (Thermo Fisher #15140-122). 293A cells were incubated at 37° C., 5% CO2 for 24 h and then transfected with […] MERTK DNA (Genecopoeia #EX-Z8208-M02) using TransIT LT1 transfection reagent (Mirus-Bio #MIR2305). After 24 h incubation, the transfected 293A cells were seeded at 1×10^5 cells/well onto 96-well plates (Corning #3904) in DMEM growth medium overnight. Test compounds were serially diluted to produce an 8-point dose curve in fresh serum-free medium to a final concentration of 0.3% DMSO (vehicle) and added to the cells and incubated for 1 h. Cells were then immediately lysed with 150 μL of cold 1× lysis buffer [20 mM Tris, 137 mM sodium chloride, 2 mM EDTA, 10% glycerol, 1% NP-40 alternative, 1 mM activated sodium orthovanadate, 1 mM PefaBloc SC (Sigma-Aldrich #11429868001), protease/phosphatase inhibitor tablet (Thermo Fisher #A32959)]. Lysates were clarified by centrifugation and 50 µL/well added in to the human phospho-Mer DuoSet IC ELISA (R&D Systems #DYC2579-2). Assay was performed according to manufacturer's instructions and sample phospho-Mer concentrations were extrapolated using human phospho-Mer control (R&D Systems #841793) as a standard. Positive control wells (100% activity) contained DMSO-treated cell lysates. Negative control wells (0% activity) contained reference inhibitor-treated cell lysates. IC50 values were calculated by nonlinear regression analysis using a 4-parameter logistic curve fit in ActivityBase XE (JDBS).

[3] = target: Met (phospho-Met, HGF-stimulated PC-3 prostate cancer cells) (Homo sapiens (Human), UniProt P08581); assay: Met autophosphorylation ELISA in PC-3 cells (Example F); conditions: cellular activity, read-out: c-Met IC50
Protocol: PC-3 prostate cancer cells (ATCC #CRL-1435) were seeded at 4×10^4 cells/well onto 24-well plates (Greiner #662165), in DMEM (Thermo Fisher #11995-040) containing 10% FBS (Thermo Fisher #26140-079), 1% MEM NEAA (Thermo Fisher #11140-050), 1% GlutaMax (Thermo Fisher #35050-061), and 1% Penicillin Streptomycin (Thermo Fisher #15140-122). PC-3 cells were incubated at 37° C., 5% CO2 for 24 h and then starved for 3 h in serum-free medium. Test compounds were serially diluted to produce an 8-point dose curve in fresh serum-free medium to a final concentration of 0.3% DMSO (vehicle) and added to the cells and incubated for 1 h. Cells were then stimulated with 100 ng/mL recombinant human HGF (R&D Systems #294-HG-250) for 10 min, washed with cold PBS, and immediately lysed with […] of cold 1× lysis buffer [20 mM Tris, 137 mM sodium chloride, 2 mM EDTA, 10% glycerol, 1% NP-40 alternative, 1 mM activated sodium orthovanadate, 1 mM PefaBloc SC (Sigma-Aldrich #11429868001), protease/phosphatase inhibitor tablet (Thermo Fisher #A32959)]. Lysates were clarified by centrifugation and 100 μL/well added into the PathScan phospho-Met (panTyr) Sandwich ELISA (Cell Signaling Technology #7333). Assay was performed according to manufacturer's instructions. Positive control wells (100% activity) contained HGF-stimulated, DMSO-treated cell lysates. Negative control wells (0% activity) contained HGF-stimulated, reference inhibitor-treated cell lysates. IC50 values were calculated by nonlinear regression analysis using a 4-parameter logistic curve fit in ActivityBase XE (IDBS).

[4] = KDR autophosphorylation ELISA in HUVEC cells
[5] = Mer autophosphorylation ELISA in transient transfected 293A cells
[6] = Met autophosphorylation ELISA in PC-3 cells

Mer (phospho-Mer, MERTK-transfected 293A cells), sequence (Q12866 21-999): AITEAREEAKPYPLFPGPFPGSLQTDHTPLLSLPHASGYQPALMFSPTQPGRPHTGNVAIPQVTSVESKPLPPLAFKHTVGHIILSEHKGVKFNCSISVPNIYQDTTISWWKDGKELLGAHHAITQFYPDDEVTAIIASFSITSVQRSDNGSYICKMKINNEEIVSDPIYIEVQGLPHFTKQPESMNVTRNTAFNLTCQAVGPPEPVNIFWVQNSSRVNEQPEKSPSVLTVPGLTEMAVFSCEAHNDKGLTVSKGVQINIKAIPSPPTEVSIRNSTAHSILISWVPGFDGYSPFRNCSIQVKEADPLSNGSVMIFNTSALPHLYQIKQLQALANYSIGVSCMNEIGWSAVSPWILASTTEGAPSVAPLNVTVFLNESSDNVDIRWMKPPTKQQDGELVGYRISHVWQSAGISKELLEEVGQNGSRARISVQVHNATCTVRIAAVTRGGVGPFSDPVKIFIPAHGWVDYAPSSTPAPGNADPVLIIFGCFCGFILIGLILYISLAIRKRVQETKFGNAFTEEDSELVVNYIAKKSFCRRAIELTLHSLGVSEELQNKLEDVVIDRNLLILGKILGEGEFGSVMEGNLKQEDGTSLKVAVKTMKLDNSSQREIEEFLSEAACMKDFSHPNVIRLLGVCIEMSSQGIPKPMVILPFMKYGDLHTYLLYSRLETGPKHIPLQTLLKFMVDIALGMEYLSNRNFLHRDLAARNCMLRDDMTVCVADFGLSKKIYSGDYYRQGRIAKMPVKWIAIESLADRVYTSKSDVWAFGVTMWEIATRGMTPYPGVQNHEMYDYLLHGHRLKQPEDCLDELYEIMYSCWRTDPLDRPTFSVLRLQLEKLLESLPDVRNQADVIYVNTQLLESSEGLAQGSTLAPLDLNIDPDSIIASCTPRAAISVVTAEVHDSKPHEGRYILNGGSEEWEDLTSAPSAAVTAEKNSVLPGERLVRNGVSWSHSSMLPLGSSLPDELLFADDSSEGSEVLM
KDR (phospho-KDR, VEGF165-stimulated HUVEC cells), sequence (P35968 20-1356): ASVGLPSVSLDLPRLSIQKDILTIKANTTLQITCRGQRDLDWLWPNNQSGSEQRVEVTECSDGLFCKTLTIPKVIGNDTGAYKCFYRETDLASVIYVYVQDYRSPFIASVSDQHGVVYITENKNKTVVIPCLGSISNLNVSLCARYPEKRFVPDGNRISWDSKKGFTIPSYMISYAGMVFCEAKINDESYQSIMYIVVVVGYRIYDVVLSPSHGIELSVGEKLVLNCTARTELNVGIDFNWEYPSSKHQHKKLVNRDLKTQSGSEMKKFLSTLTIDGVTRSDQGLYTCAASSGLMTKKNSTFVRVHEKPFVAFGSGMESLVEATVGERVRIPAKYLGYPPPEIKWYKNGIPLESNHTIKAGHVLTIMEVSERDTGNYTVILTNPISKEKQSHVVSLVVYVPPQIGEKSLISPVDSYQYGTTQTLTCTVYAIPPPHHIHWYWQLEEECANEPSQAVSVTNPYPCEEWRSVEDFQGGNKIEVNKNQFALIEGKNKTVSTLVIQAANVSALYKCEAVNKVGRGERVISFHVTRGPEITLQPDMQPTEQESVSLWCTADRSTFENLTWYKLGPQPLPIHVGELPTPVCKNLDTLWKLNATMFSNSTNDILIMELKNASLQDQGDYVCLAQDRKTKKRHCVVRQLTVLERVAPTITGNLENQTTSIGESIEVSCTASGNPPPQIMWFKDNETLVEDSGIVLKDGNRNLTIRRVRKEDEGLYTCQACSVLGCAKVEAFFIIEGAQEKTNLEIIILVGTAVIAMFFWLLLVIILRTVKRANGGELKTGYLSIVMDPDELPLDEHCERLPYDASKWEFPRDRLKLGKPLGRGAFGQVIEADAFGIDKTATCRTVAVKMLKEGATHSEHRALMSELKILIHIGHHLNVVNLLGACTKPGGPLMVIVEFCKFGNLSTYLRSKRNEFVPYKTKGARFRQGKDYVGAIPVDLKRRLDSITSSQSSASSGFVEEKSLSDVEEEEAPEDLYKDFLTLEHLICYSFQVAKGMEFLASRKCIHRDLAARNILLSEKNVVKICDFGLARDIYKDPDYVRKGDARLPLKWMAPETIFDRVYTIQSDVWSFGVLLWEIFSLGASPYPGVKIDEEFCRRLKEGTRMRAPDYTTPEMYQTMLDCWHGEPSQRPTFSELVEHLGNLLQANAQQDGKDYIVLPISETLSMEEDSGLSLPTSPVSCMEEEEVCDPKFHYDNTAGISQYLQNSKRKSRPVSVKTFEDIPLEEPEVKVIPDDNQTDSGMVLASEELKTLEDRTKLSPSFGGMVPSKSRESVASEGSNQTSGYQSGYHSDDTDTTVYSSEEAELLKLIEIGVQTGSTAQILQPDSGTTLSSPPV
Met (phospho-Met, HGF-stimulated PC-3 prostate cancer cells), sequence (P08581 25-1390): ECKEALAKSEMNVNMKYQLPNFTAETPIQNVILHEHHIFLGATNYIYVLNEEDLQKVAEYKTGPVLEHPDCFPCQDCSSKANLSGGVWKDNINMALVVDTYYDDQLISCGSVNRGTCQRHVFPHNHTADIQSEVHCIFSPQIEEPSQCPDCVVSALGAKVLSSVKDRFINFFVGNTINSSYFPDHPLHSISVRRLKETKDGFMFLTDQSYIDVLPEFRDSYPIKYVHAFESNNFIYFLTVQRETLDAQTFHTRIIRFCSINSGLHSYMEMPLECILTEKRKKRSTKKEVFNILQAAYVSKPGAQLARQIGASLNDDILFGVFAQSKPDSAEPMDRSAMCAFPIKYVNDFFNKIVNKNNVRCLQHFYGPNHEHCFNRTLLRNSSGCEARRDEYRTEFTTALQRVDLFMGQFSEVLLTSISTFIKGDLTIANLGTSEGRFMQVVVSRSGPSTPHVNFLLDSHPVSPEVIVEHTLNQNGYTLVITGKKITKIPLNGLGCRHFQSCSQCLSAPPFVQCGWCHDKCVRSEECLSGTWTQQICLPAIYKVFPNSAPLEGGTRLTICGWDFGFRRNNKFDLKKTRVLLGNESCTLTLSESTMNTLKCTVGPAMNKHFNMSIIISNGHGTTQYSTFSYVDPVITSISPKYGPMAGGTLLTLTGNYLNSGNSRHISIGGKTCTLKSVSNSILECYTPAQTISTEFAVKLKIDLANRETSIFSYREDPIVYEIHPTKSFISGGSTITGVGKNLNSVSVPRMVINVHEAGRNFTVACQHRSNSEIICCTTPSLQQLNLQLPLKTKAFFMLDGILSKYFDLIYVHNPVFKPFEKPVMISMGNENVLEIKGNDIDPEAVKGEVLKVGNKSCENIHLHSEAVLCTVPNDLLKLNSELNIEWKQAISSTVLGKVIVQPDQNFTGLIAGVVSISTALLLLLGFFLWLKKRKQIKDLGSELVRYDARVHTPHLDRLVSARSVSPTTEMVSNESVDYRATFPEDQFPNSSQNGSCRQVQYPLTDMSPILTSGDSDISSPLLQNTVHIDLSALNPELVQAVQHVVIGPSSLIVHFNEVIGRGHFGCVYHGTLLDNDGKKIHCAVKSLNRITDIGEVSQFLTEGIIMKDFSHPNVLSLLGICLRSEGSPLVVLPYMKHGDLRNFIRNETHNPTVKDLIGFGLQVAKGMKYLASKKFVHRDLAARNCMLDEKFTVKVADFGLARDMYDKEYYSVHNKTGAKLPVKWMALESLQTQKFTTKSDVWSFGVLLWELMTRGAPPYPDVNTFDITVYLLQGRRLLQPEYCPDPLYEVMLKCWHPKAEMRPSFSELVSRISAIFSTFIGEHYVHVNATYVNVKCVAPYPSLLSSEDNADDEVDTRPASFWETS

IC50 ([1]; HUVEC cells) | IC50 ([2]; transfected 293A cells) | IC50 ([3]; PC-3 cells) | IC50 [1, 4] | IC50 [2, 5] | IC50 [3, 6] | SMILES
> 300 nM | < 100 nM | < 100 nM | – | – | – | COc1cc2nccc(Oc3ccc(NC(=O)c4c(C)n(C)c(C)c(-c5ccc(F)cc5F)c4=O)cc3F)c2nc1OC [Compound 823, 5-(2,4-difluorophenyl)-N-[4-[(6,7-dimethoxy-1,5-naphthyridin-4-yl)oxy]-3-fluorophenyl]-1,2,6-trimethyl-4-oxopyridine-3-carboxamide]
– | – | – | < 100 nM | < 100 nM | < 100 nM | COc1cnc2c(Oc3ccc(NC(=O)c4c(C)ncc(-c5ccc(F)cc5C)c4O)cc3F)ccnc2c1 [Compound 719, N-[3-fluoro-4-[(7-methoxy-1,5-naphthyridin-4-yl)oxy]phenyl]-5-(4-fluoro-2-methylphenyl)-4-hydroxy-2-methylpyridine-3-carboxamide]
– | – | – | > 300 nM | < 100 nM | < 100 nM | COc1cc2nccc(Oc3ccc(NC(=O)c4nn(CC(F)F)c(C)c(-c5ccc(F)cc5)c4=O)cc3)c2nc1OC [Compound 776, 1-(2,2-difluoroethyl)-N-[4-[(6,7-dimethoxy-1,5-naphthyridin-4-yl)oxy]phenyl]-5-(4-fluorophenyl)-6-methyl-4-oxopyridazine-3-carboxamide]
– | – | – | < 100 nM | < 100 nM | < 100 nM | COc1cc2nccc(Oc3ccc(NC(=O)c4c(C)nc(C)c(-c5ccc(F)c(F)c5)c4O)cc3F)c2nc1OC [Compound 708, 5-(3,4-difluorophenyl)-N-[4-[(6,7-dimethoxy-1,5-naphthyridin-4-yl)oxy]-3-fluorophenyl]-4-hydroxy-2,6-dimethylpyridine-3-carboxamide]
– | – | – | < 100 nM | < 100 nM | < 100 nM | COc1cc2nccc(Oc3ccc(NC(=O)c4c(C)nnc(-c5ccc(F)cc5C)c4OC)cc3F)c2nc1OC [Compound 773, N-[4-[(6,7-dimethoxy-1,5-naphthyridin-4-yl)oxy]-3-fluorophenyl]-6-(4-fluoro-2-methylphenyl)-5-methoxy-3-methylpyridazine-4-carboxamide]
– | – | – | < 100 nM | < 100 nM | < 100 nM | CCOc1ccn(-c2ccc(F)cc2)c(=O)c1C(=O)Nc1ccc(Oc2ccnc3cc(OC)c(OC)nc23)c(F)c1 [Compound 715, N-[4-[(6,7-dimethoxy-1,5-naphthyridin-4-yl)oxy]-3-fluorophenyl]-4-ethoxy-1-(4-fluorophenyl)-2-oxopyridine-3-carboxamide]
– | – | – | 100 to 300 nM | < 100 nM | < 100 nM | COc1cc2nccc(Oc3ccc(NC(=O)c4c(C)c(C)c(C)n(-c5ccccc5)c4=O)cc3F)c2nc1OC [Compound 755, N-[4-[(6,7-dimethoxy-1,5-naphthyridin-4-yl)oxy]-3-fluorophenyl]-4,5,6-trimethyl-2-oxo-1-phenylpyridine-3-carboxamide]
> 300 nM | < 100 nM | < 100 nM | – | – | – | COc1cnc2c(Oc3ccc(NC(=O)c4c(C)n(CC(F)F)cc(-c5ccc(F)c(F)c5)c4=O)cc3F)ccnc2c1 [Compound 817, 1-(2,2-difluoroethyl)-5-(3,4-difluorophenyl)-N-[3-fluoro-4-[(7-methoxy-1,5-naphthyridin-4-yl)oxy]phenyl]-2-methyl-4-oxopyridine-3-carboxamide]
– | – | – | < 100 nM | < 100 nM | < 100 nM | COc1cc2nccc(Oc3ccc(NC(=O)c4c(C)nc(C)c(-c5ccc(F)c(C)c5)c4O)cc3F)c2nc1OC [Compound 710, N-[4-[(6,7-dimethoxy-1,5-naphthyridin-4-yl)oxy]-3-fluorophenyl]-5-(4-fluoro-3-methylphenyl)-4-hydroxy-2,6-dimethylpyridine-3-carboxamide]
– | – | – | 100 to 300 nM | < 100 nM | < 100 nM | COc1cc2nccc(Oc3ccc(NC(=O)c4c(C)n(CC(F)(F)F)cc(-c5ccc(F)cc5)c4=O)cc3F)c2nc1OC [Compound 727, N-[4-[(6,7-dimethoxy-1,5-naphthyridin-4-yl)oxy]-3-fluorophenyl]-5-(4-fluorophenyl)-2-methyl-4-oxo-1-(2,2,2-trifluoroethyl)pyridine-3-carboxamide]
